Here are results for one substance from patent publication US8778626B2, “Clickable cross-linker” (California Institute of Technology, priority 2010, dated 2014).

A short description of data set [1]: water solubility of CXL-1 verified by in vivo cross-linking. Format: physicochemical. The settings on record: PBS; inferred from in vivo cross-linking of Cul1. As for the experimental part:
(§1) To test the cell permeability and water solubility of CXL-1, in vivo cross-linking of HEK 293 cells, followed by Western blot analysis of the Cul1 protein were performed. The in vivo cross-linking of HEK 293 cells by CXL-1, followed by Western blot analysis was carried out as described previously with minor modifications (Lee et al., Mol. Cell. Proteomics 2010, Electronic preprint. doi:10.1074/mcp.M110.006460.) Briefly, to facilitate the purification of Cul1, a HEK 293-derived stable cell line capable of expressing tagged Cul1 upon tetracycline treatment was constructed using the T-REx™ (Tetracycline-regulated Expression) system (Invitrogen, Carlsbad, Calif.). The tandem tag used here consists of a hexa-histidine sequence and a biotinylation signal sequence (Tagwerker et al., 2006). Biotinylation is catalyzed by endogenous biotin ligases, which are present in all eukaryotic cells (Cronan J. Biol. Chem. 1990, 265, 10327). A specific lysine residue in the biotinylation signal sequence functions as an acceptor site for biotin in vivo (Kulman et al., Protein Expr. Purif. 2007, 52, 320).
Cul1 is a ubiquitin ligase that attaches a ubiquitin chain on target substrates for proteasome-catalyzed degradation (Deshaies, R. J. Annu. Rev. Cell Dev. Biol. 1999, 15, 435). Cul1 is a prototype of the cullin ligase family, and constitutes modular ligase complexes with other binding partners. […]

The next data set concerns the target T1, ubiquitin (Homo sapiens, UniProt P0CG47).
T1 construct: cross-linking of ubiquitin (PDB ID: 1 UBQ)
The data set can be described thus: circular dichroism spectrometry of CXL-1 cross-linked ubiquitin. Particulars: CD spectra, 0.25 or 1 mM CXL-1, t=0 and t=30 min, 1×PBS pH 7.4 (FIG. 10). As for the experimental part: The CXL-1 cross-linked ubiquitin samples were analyzed by an Aviv Model 62A DS Circular Dichroism (CD) Spectrometer (Lakewood, N.J.) at room temperature. The critical instrumental parameters included: acquisition range=200 to 300 nm, step size=1.00 nm, averaging time=5 s, bandwidth=1 nm, and path length=1 mm. One scan was recorded for each spectrum. For CXL-1 cross-linked samples, 1 to 4 μL of 50 mM CXL-1 stock solution in DMSO was added to 196 to 199 μL of 0.1 mg/mL ubiquitin in 1×PBS pH 7.4 to yield a final concentration of 0.25 to 1 mM CXL-1 in 200 CD spectra were collected upon addition of CXL-1 (t=0) and after 30 min of cross-linking reaction (t=0.5 h).
Circular dichroism (CD) spectrometry is a useful analytical technique for quick investigation of secondary structure, folding, and binding properties of peptides and proteins (Greenfield, N. J. Nat. Protocols 2007, 1, 2876). […] The CD spectra of native ubiquitin were previously recorded, yielding the secondary structure analysis of 6% α-helix, 10% β-sheet and 84% random structures, which can be observed as increasingly negative ellipticity over the range of 225 to 240 nm (Jenson et al., Biochim. Biophys. Acta 1980, 624, 378, the entire contents of which are herein incorporated by reference). […]
(Circular dichroism is the unequal absorption of left and right circularly polarised light.)

In the next data set the target is T2, Cul1 protein (Homo sapiens, UniProt Q13616).
T2 construct: expressed in transfected cells
T2 sequence (Q13616 whole entry): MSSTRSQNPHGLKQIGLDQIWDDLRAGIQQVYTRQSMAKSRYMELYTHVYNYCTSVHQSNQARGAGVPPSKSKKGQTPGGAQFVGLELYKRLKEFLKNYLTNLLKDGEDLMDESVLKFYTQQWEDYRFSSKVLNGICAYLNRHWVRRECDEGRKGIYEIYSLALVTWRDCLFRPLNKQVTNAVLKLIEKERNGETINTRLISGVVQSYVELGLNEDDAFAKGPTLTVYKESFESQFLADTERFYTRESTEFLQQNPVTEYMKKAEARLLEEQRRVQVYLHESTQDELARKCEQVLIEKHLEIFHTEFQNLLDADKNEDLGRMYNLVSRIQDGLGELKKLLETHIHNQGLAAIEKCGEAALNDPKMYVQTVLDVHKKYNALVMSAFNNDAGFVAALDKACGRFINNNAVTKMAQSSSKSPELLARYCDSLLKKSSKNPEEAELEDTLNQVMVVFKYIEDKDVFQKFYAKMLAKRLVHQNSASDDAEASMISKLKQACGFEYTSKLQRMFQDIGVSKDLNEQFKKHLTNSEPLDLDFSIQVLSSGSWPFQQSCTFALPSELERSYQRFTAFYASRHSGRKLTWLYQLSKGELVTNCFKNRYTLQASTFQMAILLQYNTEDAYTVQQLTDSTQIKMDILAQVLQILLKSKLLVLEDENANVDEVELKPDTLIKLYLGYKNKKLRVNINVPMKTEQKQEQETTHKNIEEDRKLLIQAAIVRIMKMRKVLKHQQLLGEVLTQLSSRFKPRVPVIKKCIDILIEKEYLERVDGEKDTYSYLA
Put plainly: in vivo cross-linking of HEK 293 cells followed by Western blot analysis of Cul1. Particulars: inferred from cross-linking of cytoplasmic Cul1 in HEK 293 cells. It is filed as cell-based. As for the experimental part: as §1
Tagged Cul1 was induced with 1.0 μg/mL tetracycline for 4 hours in experiments for in vivo cross-linking. Twenty four hours after induction, cells were subject to in vivo cross-linking by treating 0, 0.1, 0.2, 0.5, and 1.0 mM of CXL-1, respectively, and incubated for 1 h at 37° C. […]
On the technique in general: In western blotting, separated proteins are transferred to a membrane and probed.

Another data set relates to HEK 293 cells. The data set can be described thus: cytotoxicity of CXL-1 on cells during in vivo cross-linking. It is filed as cell-based. The protocol:
Tagged Cul1 was induced with 1.0 μg/mL tetracycline for 4 hours in experiments for in vivo cross-linking. Twenty four hours after induction, cells were subject to in vivo cross-linking by treating 0, 0.1, 0.2, 0.5, and 1.0 mM of CXL-1, respectively, and incubated for 1 h at 37° C. After the completion of the cross-linking, cells were lysed for 30 minutes at 4° C. with the lysis buffer (0.050 M HEPES, pH 7.5, 0.0050 M Mg(OAc)2, 0.070 M KOAc, 10% glycerol, and 0.4% IGEPAL CA630). The lysate was centrifuged at 16,600 g at 4° C. for 20 min and the supernatant was used for Western blot analysis.
Cul1 is a ubiquitin ligase that attaches a ubiquitin chain on target substrates for proteasome-catalyzed degradation (Deshaies, R. J. Annu. Rev. Cell Dev. Biol. 1999, 15, 435). Cul1 is a prototype of the cullin ligase family, and constitutes modular ligase complexes with other binding partners. […] Secondly, if cytoplasmic Cul1 protein is cross-linked by CXL-1, the postulated cell permeability and water solubility from the design of CXL-1 can be verified. FIG. 11 depicts the Western blot analysis of cross-linked Cul1 samples acquired from in vivo cross-linking of HEK 293 cells. From the observation of the higher molecular weight band, Cul1 is cross-linked by CXL-1 in a range of approximately 0.5 to 1.0 mM. […] Accordingly, CXL-1 is compatible with the cellular environment for in vivo cross-linking.

As for “NHS-activated 2,2′-(hex-5-ynylazanediyl)diacetic acid [CXL-1]”, the solubility result in data set [1] is “soluble in PBS”. Moreover, the “contribution of CXL-1 on ubiquitin secondary structure” value at ubiquitin is recorded as “minimal or undetectable”. Moreover, the cell permeability result on Cul1 protein was “cell-permeable”. Moreover, in the data set with HEK 293 cells (CXL-1 in working concentration ranges), the “cytotoxic activity on cells” value is “no or minimal cytotoxic activity”. In addition, the cell toxicity result with HEK 293 cells (treatment of CXL-1 up to 1 mM, HEK 293 cells, 1 h at 37° C.) is “did not induce any significant cell toxicity”.
